According to US20090227683A1, “Compositions for Providing an Analgesic Effect to the Skin” (priority 2008, published 2009):

Legend:
[1] = test system: Albino male CD-1 mice (scratching induced by Compound 48/80); assay: Scratching against Compound 48/80 in mice; assay type: in vivo; conditions: for effect on Compound 48/80 scratching, in words: text summary of Tables 1 and 8
Method: Albino male CD-1 mice, 7-9 weeks old, were used. Testing was based on known methods (See Liebel et al., Arch Dermatol Res. 298:191-199, 2006.) Test agents were prepared at concentrations noted in Table 1 in 100% ethanol and 50 μL was applied topically to the shaved dorsal skin 30 minutes prior to induction of scratching (8 mice per treatment group). Compound 48/80 (50 μg/50 μL: w/v) was then injected inter-dermal to the dorsal area and scratches were then counted for 30 minutes.
Albino male CD-1 mice, 7-9 weeks old, were used. Testing was based on known methods (See Liebel et al., Arch Dermatol Res. 298:191-199, 2006.) Test agents were prepared in 100% ethanol and 50 uL was applied topically to the shaved dorsal skin 30 minutes prior to induction of scratching (8 mice per treatment group). Compound 48/80 (50 ug/50 uL w/v) was then injected inter-dermal to the dorsal area and scratches were then counted for 30 minutes.

[2] = test system: Albino male CD-1 mice (neurogenic inflammation induced by Resiniferatoxin); assay: Resiniferatoxin neurogenic inflammation model in the mouse ear (ear edema); assay type: in vivo; conditions: for inhibition of the neurogenic inflammatory response to resiniferatoxin, in words: summary of Tables 2 to 4
Excerpt: Neurosensory inflammation, also referred to as neurogenic inflammation, is a type of inflammation triggered by sensory nerve activation in skin. Certain natural substances that act on vanilloid receptors cause sensory nerves (C-fibers) to release inflammatory neuropeptides. In mouse skin, an edema response occurs rapidly upon application of a vanilloid receptor activator, such as capsaicin or resiniferatoxin (RTX).
Albino male CD-1 mice, 7-9 weeks old, were used. […] A 20-μL volume of Resiniferatoxin (0.05%) prepared in acetone was applied to the left ears (7 mice per treatment group). The right ear was not treated. Test agents were prepared in a 70% ethanol/30% propylene glycol vehicle and applied to the left ear (20 μL) immediately after resiniferatoxin challenge. The percent inhibition was calculated by comparing treatments to resiniferatoxin alone. Anti-neurogenic inflammation effects of compounds are evident as an inhibition of the increase in ear weight.

[3] = Table 8, topical dose 1 % w/v in 100% ethanol, 50 uL, 30 minutes prior to Compound 48/80
[4] = Table 2, topical dose 0.5 % w/v in 70% ethanol/30% propylene glycol, 20 μL to ear immediately after resiniferatoxin

`Nc1cc(N2CCCCC2)nc(N)[n+]1[O-]` [Minoxidil, reference compound] was tested, and the “% Inhibition of Scratching” value [1, 3] was 8.42%.

With `CC(C)NCCN(CCNC(C)C)CCNC(C)C` [Tris[2-(isopropylamino)ethylamine] the “% Inhibition of the Ear Edema” value [2, 4] was 13.62% and the “inhibition of the neurogenic inflammatory response to resiniferatoxin, in words” value (shortened to “inhibition … in words”) [2] was “failed to significantly inhibit”.

With `CC(N/C(=N\C#N)Nc1ccncc1)C(C)(C)C` (stereo not drawn) [Pinacidil, reference compound] the “% Inhibition of Scratching” value [1, 3] was 17.03%.

In the case of `[Cl-].[Na+]` [Sodium Chloride, reference compound], the “% Inhibition of the Ear Edema” value ([2]; Table 3, topical dose 1 % w/v) is reported as 7.06%.

In the case of `CCN(CC)CC(=O)Nc1c(C)cccc1C` [Lidocaine, reference compound], the “% Inhibition of the Ear Edema” value [2, 4] is reported as 28.7%.

For `O=C([O-])[O-].[K+].[K+]` [Potassium Carbonate], the “% Inhibition of the Ear Edema” value ([2]; Table 4, topical dose 0.283 % w/v) was 4.52%.

For `CC(O)C(=O)[O-].[K+]` (stereo not drawn) [Potassium Lactate], the “% Inhibition of Scratching” value ([1]; Table 1, topical dose 0.206 % w/v in 100% ethanol, 50 μL, 30 minutes prior to Compound 48/80) was −8.84%, the “effect on Compound 48/80 scratching, in words” value [1] was “very weak to no inhibition” and the “% Inhibition of the Ear Edema” value ([2]; Table 2, topical dose 0.206 % w/v, 20 μL to ear immediately after resiniferatoxin) was 13.52%. For the same compound, the “% Inhibition of the Ear Edema” value ([2]; Table 4, topical dose 0.206 % w/v) was 13.52% and the “inhibition … in words” value [2] was “failed to significantly inhibit”.

With `[Cl-].[K+]` [Potassium Chloride] the “% Inhibition of the Ear Edema” value ([2]; Table 3, topical dose 0.524 % w/v) was 9.98% and the “% Inhibition of the Ear Edema” value ([2]; Table 4, topical dose 0.524 % w/v) was 9.98%.

For `[Ca+2].[Cl-].[Cl-]` [Calcium Chloride, reference compound], the “% Inhibition of the Ear Edema” value ([2]; Table 3, topical dose 1 % w/v) was −3.24%.

With `CC(O)CN(CCN(CC(C)O)CC(C)O)CC(C)O` (stereo not drawn) [Tetrahydroxypropyl ethylenediamine, N,N,N′,N′-Tetrakis(2-hydroxypropyl)ethylenediamine] the “% Inhibition of Scratching” value ([1]; Table 1, topical dose 1 % w/v in 100% ethanol, 50 μL on shaved dorsal skin 30 minutes prior to Compound 48/80, scratches counted for 30 minutes) was 9.39%, the “% Inhibition of Scratching” value [1, 3] was 9.39% and the “effect on Compound 48/80 scratching, in words” value [1] was “very weak to no inhibition”. The “% Inhibition of the Ear Edema” value ([2]; Table 2, topical dose 1 % w/v, 20 μL to ear immediately after resiniferatoxin) was 4.04% and the “inhibition … in words” value [2] was “failed to significantly inhibit”.

In the case of `CC(=O)[O-].[K+]` [Potassium Acetate], the “% Inhibition of the Ear Edema” value ([2]; Table 4, topical dose 0.398 % w/v) is reported as −2.89%.
